Values of other authors as cited in patent publication US20160270390A1, “POLYMERIC FILM FOR AG[…] STORAGE, […] THEREFROM AND RELATED METHODS OF AG[…] STORAGE” (priority 2012, published 2016).

Test system: insect pests
Conditions: Zimbabwe, grain damage of 92% reported due to insect pests

In the case of `CCOC(=O)CC(SP(=S)(OC)OC)C(=O)OCC` (stereo not shown) [malthion], the “reduction of grain damage in stored maize” value is given as 10%.
